This is an account of results in patent publication US12564638B2 (SHANGHAITECH UNIVERSITY, priority 2019, dated 2026).

Structures are written as SMILES.

What all share (format): cell-based
The subject of assay [1] is BT474 cells (HER2 positive breast cancer cells). Put plainly: Cell viability assay (CCK8), BT474 cells. The note with it: Homo sapiens, BT-474, Table 10, BT474, 72 hours, read-out: IC50 (half inhibitory concentration). The method, boiled down:
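HER2-overexpressing BT474 cells in RPMI1640 were exposed to compounds for 72 hours over 10 concentrations (3-fold dilution, top 10 μM). Viability was measured with CCK8 reagent against a DMSO control, and IC50 was taken from growth inhibition curves.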

Assay [2] has as its system PC9 cells (EGFR Exon 19 del, non-small cell lung cancer cells). Put plainly: Cell viability assay (WST/CCK8), PC9 cells. Conditions: Homo sapiens, PC-9; Table 3, poziotinib-based compounds; PC9 (Exon 19 Del); 72 hours; WST (CCK8); read-out: IC50 (half inhibitory concentration). The method, boiled down:
(§1)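 Plated 3 000 cells/well in complete RPMI1640 the day before dosing; controls were DMSO (negative) and EGFR TKIs (positive).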

Assay [3] has as its system HCC827 cells (EGFR Exon19 del, non-small cell lung cancer cells). Put plainly: Cell viability assay (WST/CCK8), HCC827 cells. The note with it: Homo sapiens, HCC827, 72 h, Table 3, poziotinib-based compounds; HCC827 (Exon19 Del); 72 hours; WST (CCK8); read-out: IC50 (half inhibitory concentration). Summed up: as §1
Assay [4] deals with PC9 DCT (Del19+T790M+C797S) cells. Put plainly: Cell viability assay, PC9 cells with EGFR triple mutation. The note with it: Homo sapiens, PC-9; Table 9; PC9 (Del + T790M + C797S), EGFR triple mutations; read-out: IC50 (half inhibitory concentration). From the text: Construction of EGFR triple mutant cell line PC9 DCT (Dell9+T790M+C797S): The cDNA expressing human EGFR was cloned into pLVX vector, and exon 19 deletion mutation (746-750) and T790M mutation were introduced by point mutation and C797S mutation. Transferred into PC9 cells by lentiviral packaging. Cells stably expressing EGFR triple mutations were obtained by fluorescence screening.
The cDNA sequence expressing human EGFR was cloned into a pLVX vector (GFP^+), and then introduce the EGFR exon 19 deletion (746-750), exon 20 T790M and C797S mutations by were generated by site-directed mutagenesis. The PC9 cells were infected with lentivirus containing the indicated EGFR mutations, and the cells stably expressing EGFR triple mutation were obtained by fluorescence screening.
All of the half inhibitory concentrations (IC50) of these compounds of the present invention were determined with WST reagent from Fuyuan Biotec Company. The specific experiment procedures are as follows: Cancer cells were planted in 96-well-plate at the density of 3 000 cells per well with 100 μL RPMI1640 completed culture medium. In the next day, compounds with indicated concentrations were added to the cells, DMSO was used as the negative control and the EGFR TKIs were used to treat cells as the positive groups. After 72 hours drug treatment, cell viability was measured by using the WST reagent following the instructions. The growth inhibition curve of the compounds on cells were plotted by Prism GraphPad, and the compounds IC50 calculated from it.
The cell viability assays were taken to determine the anti-tumor activity of these indicated compounds in PC9 cells, which overexpressed Exon 19del+T790M+C797S triple mutant EGFR.

Consider `COc1cc2ncnc(Nc3ccc(Cl)c(Cl)c3F)c2cc1OC1CCNCC1` [Poziotinib derivative A (SIAIS219149), N-(3,4-dichloro-2-fluorophenyl)-7-methoxy-6-(piperidin-4-yloxy)quinazolin-4-amine], for which the IC50 came out at 0.0812 µM in assay [1], 0.017 µM in assay [2], 0.0071 µM in assay [3] and 0.0052 µM in assay [4].

For `COc1cc2ncnc(Nc3ccc(Cl)c(Cl)c3F)c2cc1OC1CCN(C(=O)CCSc2cccc3c2CN(C2CCC(=O)NC2=O)C3=O)CC1` (stereo not shown) [SIAIS219165, 3-(4-((3-(4-((4-((3,4-dichloro-2-fluorophenyl)amino)-7-methoxyquinazolin-6-yl)oxy)piperidin-1-yl)-3-oxopropyl)thio)-1-oxoisoindolin-2-yl)piperidine-2,6-dione], the IC50 came to 0.0027 µM in assay [1], 0.003 µM in assay [2], 0.023 µM in assay [3] and 0.0046 µM in assay [4].

With `COc1cc2ncnc(Nc3ccc(Cl)c(Cl)c3F)c2cc1OC1CCN(C(=O)CNc2cccc3c2C(=O)N(C2CCC(=O)NC2=O)C3=O)CC1` (stereo not shown) [SIAIS219177, 4-((2-(4-((4-((3,4-dichloro-2-fluorophenyl)amino)-7-methoxyquinazolin-6-yl)oxy)piperidin-1-yl)-2-oxoethyl)amino)-2-(2,6-dioxopiperidin-3-yl)isoindoline-1,3-dione], the IC50 was 0.0359 µM in assay [1], 0.038 µM in assay [2], 0.0082 µM in assay [3] and 0.0024 µM in assay [4].

Consider `COc1cc2ncnc(Nc3ccc(Cl)c(Cl)c3F)c2cc1OC1CCN(C(=O)CCCNc2cccc3c2C(=O)N(C2CCC(=O)NC2=O)C3=O)CC1` (stereo not shown) [SIAIS219179, 4-((4-(4-((4-((3,4-dichloro-2-fluorophenyl)amino)-7-methoxyquinazolin-6-yl)oxy)piperidin-1-yl)-4-oxobutyl)amino)-2-(2,6-dioxopiperidin-3-yl)isoindoline-1,3-dione], for which the IC50 in assay [3] is 0.0202 µM; in assay [4] it was 0.0039 µM.

Take `COc1cc2ncnc(Nc3ccc(Cl)c(Cl)c3F)c2cc1OC1CCN(C(=O)CCCCNc2cccc3c2C(=O)N(C2CCC(=O)NC2=O)C3=O)CC1` (stereo not shown) [SIAIS219180, 4-((5-(4-((4-((3,4-dichloro-2-fluorophenyl)amino)-7-methoxyquinazolin-6-yl)oxy)piperidin-1-yl)-5-oxopentyl)amino)-2-(2,6-dioxopiperidin-3-yl)isoindoline-1,3-dione]: the IC50 in assay [3] was found to be 0.0267 µM; in assay [4], 0.0033 µM.

As to `COc1cc2ncnc(Nc3ccc(Cl)c(Cl)c3F)c2cc1OC1CCN(C(=O)CCCCCNc2cccc3c2C(=O)N(C2CCC(=O)NC2=O)C3=O)CC1` (stereo not shown) [SIAIS219181, 4-((6-(4-((4-((3,4-dichloro-2-fluorophenyl)amino)-7-methoxyquinazolin-6-yl)oxy)piperidin-1-yl)-6-oxohexyl)amino)-2-(2,6-dioxopiperidin-3-yl)isoindoline-1,3-dione], the IC50 was 0.0231 µM in assay [3] and 0.0038 µM in assay [4].

For the compound `COc1cc2ncnc(Nc3ccc(Cl)c(Cl)c3F)c2cc1OC1CCN(C(=O)CSc2cccc3c2C(=O)N(C2CCC(=O)NC2=O)C3=O)CC1` (stereo not shown) [SIAIS249014, 4-((2-(4-((4-((3,4-dichloro-2-fluorophenyl)amino)-7-methoxyquinazolin-6-yl)oxy)piperidin-1-yl)-2-oxoethyl)thio)-2-(2,6-dioxopiperidin-3-yl)isoindoline-1,3-dione], the IC50 is 0.051 µM in assay [3] and 0.0018 µM in assay [4].

On to `COc1cc2ncnc(Nc3ccc(Cl)c(Cl)c3F)c2cc1OC1CCN(C(=O)CCSc2cccc3c2C(=O)N(C2CCC(=O)NC2=O)C3=O)CC1` (stereo not shown) [SIAIS249015, 4-((3-(4-((4-((3,4-dichloro-2-fluorophenyl)amino)-7-methoxyquinazolin-6-yl)oxy)piperidin-1-yl)-3-oxopropyl)thio)-2-(2,6-dioxopiperidin-3-yl)isoindoline-1,3-dione], for which the IC50 in assay [1] came out at 0.087 µM; in assay [2] it was 0.13 µM; in assay [3], 0.046 µM; in assay [4], 0.0047 µM.

With `COc1cc2ncnc(Nc3ccc(Cl)c(Cl)c3F)c2cc1OC1CCN(C(=O)CCCSc2cccc3c2C(=O)N(C2CCC(=O)NC2=O)C3=O)CC1` (stereo not shown) [SIAIS249016, 4-((4-(4-((4-((3,4-dichloro-2-fluorophenyl)amino)-7-methoxyquinazolin-6-yl)oxy)piperidin-1-yl)-4-oxobutyl)thio)-2-(2,6-dioxopiperidin-3-yl)isoindoline-1,3-dione], the IC50 in assay [3] was 0.029 µM; in assay [4], 0.0015 µM.

As to `COc1cc2ncnc(Nc3ccc(Cl)c(Cl)c3F)c2cc1OC1CCN(C(=O)CCCCSc2cccc3c2C(=O)N(C2CCC(=O)NC2=O)C3=O)CC1` (stereo not shown) [SIAIS249017, 4-((5-(4-((4-((3,4-dichloro-2-fluorophenyl)amino)-7-methoxyquinazolin-6-yl)oxy)piperidin-1-yl)-5-oxopentyl)thio)-2-(2,6-dioxopiperidin-3-yl)isoindoline-1,3-dione], the IC50 in assay [3] is 0.023 µM; in assay [4] it was 0.0022 µM.
